Test system: von Bezold-Jarisch reflex evoked by 5-HT
Assay: Antagonism of the von Bezold-Jarisch reflex
Assay type: in vivo
Conditions: anaesthetised rat; dose of 1µg/kg i.v.
Protocol: The compounds were evaluated for antagonism of the von Bezold-Jarisch reflex evoked by 5-HT in the anaesthetised rat according to the following method:
Male rats 250-350g, were anaesthetised with urethane (1.25g/kg intraperitoneally) and blood pressure and heart rate recorded as described by Fozard J.R. et al., J. Cardiovasc. Pharmacol. 2, 229-245 (1980). A submaximal dose of 5-HT (usually 6µg/kg) was given repeatedly by the intravenous route and changes in heart rate quantified. Compounds were given intravenously and the concentration required to reduce the 5-HT-evoked response to 50% of the control response (ED₅₀) was then determined.

**Q.** How did the “activity (antagonism of the von Bezold-Jarisch reflex)” value (“activity” for short) turn out when CN1C2COCC1CC(NC(=O)N1CC(C)(C)c3ccccc31)C2 (stereo not drawn) [Example E5, endo-N-(9-Methyl-9-aza-3-oxabicyclo[3.3.1]nonan-7-yl)-3,3-dimethyl-1-indoline carboxamide] was run?
**A.** Its value is “active”.

**Q.** How did the “activity” value turn out when CN1C2COCC1CC(NC(=O)c1nn(C)c3ccccc13)C2 (stereo not drawn) [Example E4, endo-N-(9-Methyl-9-aza-3-oxabicyclo[3.3.1]nonan-7-yl)-1-methyl-1H-indazol-3-carboxamide] was run?
**A.** The value was “active”.

**Q.** With COc1ccccc1NC(=O)NC1CC2COCC(C1)N2C (stereo not drawn) [Example E3, endo-N-(9-Methyl-9-aza-3-oxabicyclo[3.3.1]nonan-7-yl)-N′-(2-methoxyphenyl)urea] as the compound, how does the “activity” value read?
**A.** The value was “active”.

From patent EP0377967A2, “9-Aza-3-(oxa/thia)-bicyclo[3,2,1]nonane derivatives, process and intermediates for their preparation and pharmaceutical compositions containing them” (BEECHAM GROUP PLC, priority 1988, dated 1990)
